Reference: US5350864A, “Aminoalkylcarbamyl derivatives of forskolin as intermediates for the synthesis of useful forskolin derivatives” (The United States of America as represented by the …, priority 1990, dated 1994)
Entries after “also recorded” stand apart in the source; their conditions may differ. Where two headings read alike, the source gives them in different places.

Key:
adenylate cyclase [1] = details: literature; cited from earlier work
adenylate cyclase [2] = details: literature; cited from earlier work; remark: listed apart in the source
[3] = mildly basic conditions; literature; cited from earlier work
[4] = test system: bovine brain adenylate cyclase; experiment: Activation of bovine brain adenylate cyclase; type: biochemical; details: relative to forskolin
Water solubility = type: physicochemical; details: relative to forskolin
glucose transporter [5] = experiment: Binding of 7-^125 I-HPP-Fsk to rat muscle
Excerpt: (§1) 7-^125 I-HPP-Fsk also binds with high affinity to other tissues including bovine brain, rat heart, rat muscle, and human platelets. The binding of 7-^125 I-HPP-Fsk to these tissues is inhibited by D-glucose and cytochalasin B. Therefore, 7-^125 I-HPP-Fsk binds with high affinity to the glucose transporter in diverse tissues.

glucose transporter [6] = biological target: T1, glucose transporter (Homo sapiens, UniProt P11166); experiment: Photolabelling of human red blood cell membranes, SDS gel electrophoresis; type: binding
T1 construct: Crude membranes from human red blood cells; from tissue; host or cells: human red blood cells, membranes
T1 sequence (P11166 1-492): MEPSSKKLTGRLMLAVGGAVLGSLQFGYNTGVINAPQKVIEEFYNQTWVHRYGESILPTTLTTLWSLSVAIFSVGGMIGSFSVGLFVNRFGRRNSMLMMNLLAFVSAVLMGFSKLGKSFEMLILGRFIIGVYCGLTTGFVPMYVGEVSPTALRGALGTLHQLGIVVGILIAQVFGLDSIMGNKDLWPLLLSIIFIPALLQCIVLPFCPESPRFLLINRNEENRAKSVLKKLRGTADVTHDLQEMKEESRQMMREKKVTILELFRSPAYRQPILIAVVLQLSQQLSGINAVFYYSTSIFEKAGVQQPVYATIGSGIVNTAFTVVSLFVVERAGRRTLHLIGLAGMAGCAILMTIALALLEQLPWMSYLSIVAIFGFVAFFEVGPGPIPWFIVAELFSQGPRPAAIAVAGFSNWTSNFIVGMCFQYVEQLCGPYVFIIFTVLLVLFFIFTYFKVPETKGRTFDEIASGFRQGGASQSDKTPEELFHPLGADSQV
Description: Derivative 9 (7-AIPPS-Fsk) is incubated with human red blood cell membranes, photolyzed, and then the radioactive proteins were analyzed by SDS gel electrophoresis.

adenylate cyclase [7] = experiment: Filtration binding assay, ^125 I-labelled derivative 19 (6-^125 I-HPP-Fsk) to bovine brain membranes; details: bovine brain membranes, 20° C., 60 min
Excerpt: Derivative 19 (6-^125 I-HPP-Fsk) was used to develop a binding assay for adenylate cyclase (Example 4). […] Therefore, a filtration assay can be used to separate the bound from free ligand and determine the amount of high affinity binding. […] Analogs of forskolin that activate adenylate cyclase inhibit the binding of 6-^125 I-HPP-Fsk to membranes. The ability of an agent to inhibit 6-^125 I-HPP-Fsk binding to membranes is therefore indicative of its ability to stimulate adenylate cyclase.
Binding of 6-^125 I-HPP-Fsk to Membranes--Crude membranes from bovine brain were incubated for 60 minutes at […] 20° C. with 20,000 cpm of 6-^125 I-HPP-Fsk. Binding equilibrium was reached by 45 minutes and was constant for at least 2 hours (data not shown). The incubations were carried out at 20° C. for 60 minutes in 12×75 glass test tubes in a total volume of 0.4 mL […] Tris-HCl buffer, pH 7.4. The membranes (0.40 mg/tube) were incubated in the presence of 5 mM MgCl2 and 10 mM NaF. The assay was terminated by the addition of 5 mL of cold Tris-HCl buffer to the tubes and rapid filtration over Whatman GF/C filters using a Brandel cell harvester. The assay was terminated as described above and the filters counted in a gamma counter. The nonspecific binding was calculated as the amount of label not displaced by 20 uM forskolin. The non specific binding was about 20% of the total bound.

glucose transporter [8] = biological target: T1, glucose transporter; experiment: Filtration binding assay, ^125 I-labelled derivative 8 (7-^125 I-HPP-Fsk) to human red blood cell membranes
Description: Binding of 7-^125 IHPP-Fsk to Membranes--Crude membranes from human red blood cells were incubated for 60 minutes at 20° C. with 20,000 cpm of 7-^125 IHPP-Fsk. […] The incubations were carried out at 20° C. for 60 minutes in 12×75 glass test tubes in a total volume of 0.4 mL 50 mM Tris-HCl buffer, pH 7.4. The assay was terminated by the addition of 4 mL of cold Tris-HCl buffer to the tubes at rapid filtration over Whatman GF/C filters using a Brandel cell harvester. The assay was terminated as described above and the filters counted in a gamma counter. The nonspecific binding was calculated as the amount of label not displaced by 20 μM forskolin.

glucose transporter [9] = experiment: Binding of 7-^125 I-HPP-Fsk to bovine brain
Excerpt: as §1

glucose transporter [10] = biological target: T2, glucose transporter (Homo sapiens, UniProt P11169); experiment: Binding of 7-^125 I-HPP-Fsk to human platelets
T2 construct: other tissues including bovine brain, rat heart, rat muscle, and human platelets; from tissue; host or cells: human platelets
T2 sequence (P11169 1-496): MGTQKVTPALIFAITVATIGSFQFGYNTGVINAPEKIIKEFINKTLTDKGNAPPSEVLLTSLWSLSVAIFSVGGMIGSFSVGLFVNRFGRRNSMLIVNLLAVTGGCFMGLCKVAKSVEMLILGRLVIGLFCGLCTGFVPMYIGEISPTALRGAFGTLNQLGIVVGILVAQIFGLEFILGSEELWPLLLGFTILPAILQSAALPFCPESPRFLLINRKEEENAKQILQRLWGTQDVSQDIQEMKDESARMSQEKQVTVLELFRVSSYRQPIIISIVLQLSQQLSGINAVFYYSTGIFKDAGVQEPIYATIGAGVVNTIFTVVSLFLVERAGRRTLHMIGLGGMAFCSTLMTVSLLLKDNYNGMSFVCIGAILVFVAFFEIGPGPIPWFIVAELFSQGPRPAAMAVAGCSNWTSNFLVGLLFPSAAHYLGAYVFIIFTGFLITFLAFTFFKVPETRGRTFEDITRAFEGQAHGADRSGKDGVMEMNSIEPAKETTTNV
Excerpt: as §1

glucose transporter [11] = experiment: Binding of 7-^125 I-HPP-Fsk to rat heart
Excerpt: as §1

adenylate cyclase [12] = experiment: Photolabelling of bovine brain membranes, SDS gel electrophoresis; type: binding
Description: (§2) Derivative 20 (6-AIPPS-Fsk) is incubated with partially purified preparations of bovine brain adenylate cyclase, photolyzed, and then the radioactive proteins are analyzed by SDS gel electrophoresis. […] 6-AIPPS-Fsk can also label adenylate cyclase in crude membranes. 6-AIPPS-Fsk is incubated with bovine brain membranes, photolyzed, and the radioactive proteins are analyzed by SDS gel electrophoresis.

adenylate cyclase [13] = experiment: Photolabelling of partially purified bovine brain adenylate cyclase, SDS gel electrophoresis; type: binding
Description: as §2

P-glycoprotein = P-glycoprotein (Homo sapiens, UniProt P08183)
Sequence of P-glycoprotein (P08183 whole entry): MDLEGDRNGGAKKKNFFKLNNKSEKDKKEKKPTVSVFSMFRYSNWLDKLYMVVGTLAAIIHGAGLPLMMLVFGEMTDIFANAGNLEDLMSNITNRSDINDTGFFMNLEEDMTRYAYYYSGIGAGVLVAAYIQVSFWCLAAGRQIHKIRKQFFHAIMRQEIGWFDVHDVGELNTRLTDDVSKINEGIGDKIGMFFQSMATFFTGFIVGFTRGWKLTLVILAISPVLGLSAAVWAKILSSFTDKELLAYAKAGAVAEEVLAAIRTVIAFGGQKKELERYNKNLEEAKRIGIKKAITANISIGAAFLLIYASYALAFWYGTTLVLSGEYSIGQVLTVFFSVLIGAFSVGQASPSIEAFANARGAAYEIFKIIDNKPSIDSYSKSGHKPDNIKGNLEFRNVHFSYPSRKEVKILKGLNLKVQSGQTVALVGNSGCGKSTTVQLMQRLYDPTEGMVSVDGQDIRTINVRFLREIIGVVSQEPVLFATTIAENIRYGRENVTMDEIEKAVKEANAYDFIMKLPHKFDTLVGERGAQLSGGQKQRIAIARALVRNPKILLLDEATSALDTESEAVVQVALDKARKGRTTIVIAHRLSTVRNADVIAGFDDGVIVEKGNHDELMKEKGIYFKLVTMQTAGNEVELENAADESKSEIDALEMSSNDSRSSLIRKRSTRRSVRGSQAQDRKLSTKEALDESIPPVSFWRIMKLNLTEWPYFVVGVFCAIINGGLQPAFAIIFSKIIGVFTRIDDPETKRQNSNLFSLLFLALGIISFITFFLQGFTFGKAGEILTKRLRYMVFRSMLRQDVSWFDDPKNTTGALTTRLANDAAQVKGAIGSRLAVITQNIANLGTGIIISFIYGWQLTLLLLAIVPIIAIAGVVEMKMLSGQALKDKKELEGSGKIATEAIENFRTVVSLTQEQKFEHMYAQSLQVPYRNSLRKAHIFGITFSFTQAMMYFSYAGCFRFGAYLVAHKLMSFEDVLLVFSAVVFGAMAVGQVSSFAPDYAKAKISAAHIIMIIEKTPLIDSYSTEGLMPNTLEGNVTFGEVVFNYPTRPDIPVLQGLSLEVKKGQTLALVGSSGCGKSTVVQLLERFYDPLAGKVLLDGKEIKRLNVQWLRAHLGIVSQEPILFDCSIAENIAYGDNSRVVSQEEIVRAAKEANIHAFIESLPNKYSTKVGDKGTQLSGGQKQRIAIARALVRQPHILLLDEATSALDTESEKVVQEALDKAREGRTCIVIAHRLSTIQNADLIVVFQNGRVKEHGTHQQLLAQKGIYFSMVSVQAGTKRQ

Structure (SMILES): C=C[C@@]1(C)CC(=O)[C@]2(O)[C@@]3(C)[C@@H](O)CCC(C)(C)[C@@H]3[C@H](OC(C)=O)[C@H](O)[C@@]2(C)O1 [6-acetyl-7-desacetylforskolin]
- activation of adenylate cyclase (adenylate cyclase [1]): less potent than forskolin

Structure (SMILES): C=C[C@@]1(C)CC(=O)[C@]2(O)[C@@]3(C)[C@@H](O)CCC(C)(C)[C@@H]3[C@H](O)[C@H](OC(=O)CCl)[C@@]2(C)O1 [7-desacetyl-7-chloroacetylforskolin]
- block of forskolin binding site (adenylate cyclase [2]): block the forskolin binding site on adenylate cyclase
- susceptibility to hydrolysis and rearrangement [3]: susceptible to hydrolysis and rearrangement under mildly basic conditions

Structure (SMILES): C=C[C@@]1(C)CC(=O)[C@]2(O)[C@@]3(C)[C@@H](O)CCC(C)(C)[C@@H]3[C@H](O)[C@H](OC(=O)CC)[C@@]2(C)O1 [7-desacetyl-7-propionylforskolin]
- activation of adenylate cyclase (adenylate cyclase [1]): active at adenylate cyclase

Structure (SMILES): C=C[C@@]1(C)CC(=O)[C@]2(O)[C@@]3(C)[C@@H](O)CCC(C)(C)[C@@H]3[C@H](O)[C@H](O)[C@@]2(C)O1 [7-desacetylforskolin]
- activation of adenylate cyclase (adenylate cyclase [1]): less potent than forskolin

Structure (SMILES): C=C[C@@]1(C)CC(=O)[C@]2(O)[C@@]3(C)[C@@H](O)CCC(C)(C)[C@@H]3[C@H](O)[C@H](OC(=O)CBr)[C@@]2(C)O1 [7-descacetyl-7-bromoacetylforskolin]
- block of forskolin binding site (adenylate cyclase [2]): block the forskolin binding site on adenylate cyclase
- susceptibility to hydrolysis and rearrangement [3]: susceptible to hydrolysis and rearrangement under mildly basic conditions

Structure (SMILES): C=C[C@@]1(C)CC(O)[C@]2(O)[C@@]3(C)[C@@H](O)CCC(C)(C)[C@@H]3[C@H](O)[C@H](OC(C)=O)[C@@]2(C)O1 (stereo partly drawn) [11β-hydroxyforskolin]
- activation of adenylate cyclase (adenylate cyclase [1]): less potent than forskolin

Structure (SMILES): CC[C@@]1(C)CC(=O)[C@]2(O)[C@@]3(C)[C@@H](O)CCC(C)(C)[C@@H]3[C@H](O)[C@H](OC(C)=O)[C@@]2(C)O1 [14,15-dihydroforskolin]
- activation of adenylate cyclase (adenylate cyclase [1]): less potent than forskolin

Structure (SMILES): C=C[C@@]1(C)CC(=O)[C@]2(O)[C@@]3(C)[C@@H](O)CCC(C)(C)[C@@H]3[C@H](OC(=O)NCCN)[C@H](OC(C)=O)[C@@]2(C)O1 [Compound 4, 6-aminoethylcarbamylforskolin]
- extent of stimulation of adenylate cyclase [4]: stimulate adenylate cyclase to a greater extent than forskolin
- water solubility (Water solubility): enhanced water solubility

Structure (SMILES): OC[C@H]1OC(O)[C@H](O)[C@@H](O)[C@@H]1O (stereo partly drawn) [D-glucose]
- inhibition of 7-^125 I-HPP-Fsk binding (glucose transporter [5]): inhibited
- inhibition of labelling by 7-AIPPS-Fsk (glucose transporter [6]): inhibited
- inhibition of 6-^125 I-HPP-Fsk binding (adenylate cyclase [7]): not inhibited
- inhibition of 7-^125 I-HPP-Fsk binding (glucose transporter [8]): inhibited; also recorded: inhibition of binding
- inhibition of 7-^125 I-HPP-Fsk binding (glucose transporter [9]): inhibited
- inhibition of 7-^125 I-HPP-Fsk binding (glucose transporter [10]): inhibited
- inhibition of 7-^125 I-HPP-Fsk binding (glucose transporter [11]): inhibited

Structure (SMILES): C=C[C@@]1(C)CC(=O)[C@]2(O)[C@@]3(C)[C@@H](O)CCC(C)(C)[C@@H]3[C@H](O)[C@H](OC(=O)NCCNC(=O)CCc3ccc(O)c([125I])c3)[C@@]2(C)O1 [Derivative 8]
- binding affinity (glucose transporter [5]): high affinity
- time binding was constant (glucose transporter [8]; 20° C.): at least 2 hours
- time to binding equilibrium (glucose transporter [8]; 20° C.): ≤ 45 min
- binding affinity / selectivity (glucose transporter [8]; human red blood cell glucose transporter, listed as 7-^125 I-HPP-Fsk): binds to the human red blood cell glucose transporter with high affinity; also recorded: will not detect adenylate cyclase
- nonspecific binding (of total bound) (glucose transporter [8]; label not displaced by 20 μM forskolin): about 20%
- Kd (glucose transporter [8]; membranes from human red blood cells, read-out: affinity of 7-^125 I-HPP-Fsk): 30 nM
- binding affinity (glucose transporter [9]): high affinity
- binding affinity (glucose transporter [10]): high affinity
- binding affinity (glucose transporter [11]): high affinity

Structure (SMILES): C=C[C@@]1(C)CC(=O)[C@]2(O)[C@@]3(C)[C@@H](O)CCC(C)(C)[C@@H]3[C@H](O)[C@H](OC(=O)NCCNC(=O)CCc3ccc(N=[N+]=[N-])c([125I])c3)[C@@]2(C)O1 [Derivative 9]
- photolabelling of adenylate cyclase (adenylate cyclase [12]): less efficient at labelling the adenylate cyclase than the 6-AIPPS-Fsk
- photolabelling of glucose transporter (glucose transporter [6]; listed as 7-AIPPS-Fsk): labels the glucose transporter; also recorded: more potent at labelling the glucose transporter in human red blood cell membranes than 6-AIPPS-Fsk

Structure (SMILES): C=C[C@@]1(C)CC(=O)[C@]2(O)[C@@]3(C)[C@@H](O)CCC(C)(C)[C@@H]3[C@H](OC(=O)NCCNC(=O)CCc3ccc(N=[N+]=[N-])c([125I])c3)[C@H](OC(C)=O)[C@@]2(C)O1 [Derivative 20]
- photolabelling of adenylate cyclase (adenylate cyclase [12]): labels the adenylate cyclase in bovine brain membranes
- photolabelling of adenylate cyclase (adenylate cyclase [13]): covalently incorporated into the adenylate cyclase
- photolabelling of P-glycoprotein (P-glycoprotein): labelled

Structure (SMILES): C=C[C@@]1(C)CC(=O)[C@]2(O)[C@@]3(C)[C@@H](O)CCC(C)(C)[C@@H]3[C@H](OC(=O)NCCNC(=O)CCc3ccc(O)cc3)[C@H](OC(C)=O)[C@@]2(C)O1 [Derivative 21]
- inhibition of labelling by 6-AIPPS-Fsk (P-glycoprotein): more potent at inhibiting the labelling by 6-AIPPS-Fsk than forskolin

Structure (SMILES): OC[C@@H]1OC(O)[C@@H](O)[C@H](O)[C@H]1O (stereo partly drawn) [L-glucose]
- inhibition of 7-^125 I-HPP-Fsk binding (glucose transporter [8]): not L-glucose

Structure (SMILES): O=C(CCc1ccc(O)cc1)c1c(O)cc(O)cc1O[C@@H]1O[C@H](CO)[C@@H](O)[C@H](O)[C@H]1O [phloridzin]
- inhibition of 7-^125 I-HPP-Fsk binding (glucose transporter [8]; human red blood cell membranes): relatively potent
